According to patent publication US20250171457A1, “NITROGEN-CONTAINING HETEROCYCLIC COMPOUND HAVING NRF2 ACTIVATION EFFECT” (CHUGAI SEIYAKU KABUSHIKI KAISHA, priority 2022, published 2025):
Where a name gives a salt, the structure may show the parent alone.

system: Nrf2 transcriptional activity (pARE-Luc reporter) in HepG2 cells; test: In vitro Nrf2 transcriptional activity measurement by ARE-dependent reporter assay in HepG2 cell; format: cell-based, human; details: Homo sapiens; HepG2 cells transfected with pARE-Luc, 4 hours at 37° C.; luciferase activity of Example 1-54 or Example 17-23 at 3.75 μM defined as 100%
Procedure, shortened: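 HepG2 cells transfected with pGL4.37 (pARE-Luc), replated onto compound and incubated 4 h at 37° C; luciferase read by Bright-Glo luminescence. Response normalized to 100% set by a reference compound at 3.75 μM; EC50 from dose-response curve.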

SMILES | EC50 [µM]
CC1(C)COC2(CN(c3ccc(C(=O)N4COc5c(cccc5-c5cc(N6C7CCC6COC7)c(C(=O)O)cc5F)C4)c(Cl)c3)C2)OC1 [Compound 19-11, 4-[3-[2-Chloro-4-(7,7-dimethyl-5,9-dioxa-2-azaspiro[3.5]nonan-2-yl)benzoyl]-2,4-dihydro-1,3-benzoxazin-8-yl]-5-fluoro-2-(3-oxa-8-azabicyclo[3.2.1]octan-8-yl)benzoic acid] | 0.0043
Cn1nnc2c(N3CC4(C3)OCC(C)(C)CO4)cc(Cl)c(C(=O)N3COc4c(cccc4-c4cc(N5C6CCC5COC6)c(C(=O)O)cc4F)C3)c21 [Compound 19-12, 4-[3-[5-Chloro-7-(7,7-dimethyl-5,9-dioxa-2-azaspiro[3.5]nonan-2-yl)-3-methylbenzotriazole-4-carbonyl]-2,4-dihydro-1,3-benzoxazin-8-yl]-5-fluoro-2-(3-oxa-8-azabicyclo[3.2.1]octan-8-yl)benzoic acid] | 0.0025
Cn1nc2c(N3CC4(C3)OCC(C)(C)CO4)cc(Cl)c(C(=O)N3COc4c(cccc4-c4cc(N5C6CCC5COC6)c(C(=O)O)cc4F)C3)c2n1 [Compound 19-13, 4-[3-[5-Chloro-7-(7,7-dimethyl-5,9-dioxa-2-azaspiro[3.5]nonan-2-yl)-2-methylbenzotriazole-4-carbonyl]-2,4-dihydro-1,3-benzoxazin-8-yl]-5-fluoro-2-(3-oxa-8-azabicyclo[3.2.1]octan-8-yl)benzoic acid] | 0.0021
Cn1nnc2c(C(=O)N3COc4c(cccc4-c4cc(N5C6CCC5COC6)c(C(=O)O)cc4F)C3)c(Cl)cc(N3CC4(C3)OCC(C)(C)CO4)c21 [Compound 19-14, 4-[3-[5-Chloro-7-(7,7-dimethyl-5,9-dioxa-2-azaspiro[3.5]nonan-2-yl)-1-methylbenzotriazole-4-carbonyl]-2,4-dihydro-1,3-benzoxazin-8-yl]-5-fluoro-2-(3-oxa-8-azabicyclo[3.2.1]octan-8-yl)benzoic acid] | 0.0041
COC1CC2(C1)CN(c1cc(Cl)c(C(=O)N3COc4c(cccc4-c4cc(N5C6CCC5COC6)c(C(=O)O)cc4F)C3)c3c1nc(C)n3C)C2 [Compound 19-15, 4-[3-[5-Chloro-7-(6-methoxy-2-azaspiro[3.3]heptan-2-yl)-2,3-dimethylbenzimidazole-4-carbonyl]-2,4-dihydro-1,3-benzoxazin-8-yl]-5-fluoro-2-(3-oxa-8-azabicyclo[3.2.1]octan-8-yl)benzoic acid] | 0.0023
COC1CC2(C1)CN(c1cc(Cl)c(C(=O)N3COc4c(cccc4-c4cc(N5C6CCC5COC6)c(C(=O)O)cc4F)C3)c3nc(C)n(C)c13)C2 [Compound 19-16, 4-[3-[5-Chloro-7-(6-methoxy-2-azaspiro[3.3]heptan-2-yl)-1,2-dimethylbenzimidazole-4-carbonyl]-2,4-dihydro-1,3-benzoxazin-8-yl]-5-fluoro-2-(3-oxa-8-azabicyclo[3.2.1]octan-8-yl)benzoic acid] | 0.017
CN1CCC2(CC1)CN(c1cc(Cl)c(C(=O)N3COc4c(cccc4-c4cc(N5C6CCC5COC6)c(C(=O)O)cc4F)C3)c(Cl)c1)C2 [Compound 19-17, 4-[3-[2,6-Dichloro-4-(7-methyl-2,7-diazaspiro[3.5]nonan-2-yl)benzoyl]-2,4-dihydro-1,3-benzoxazin-8-yl]-5-fluoro-2-(3-oxa-8-azabicyclo[3.2.1]octan-8-yl)benzoic acid] | 0.0061
CC[C@@H]1CN(C)CCN1c1cc(Cl)c(C(=O)N2COc3c(cccc3-c3cc(N4C5CCC4COC5)c(C(=O)O)cc3F)C2)c(Cl)c1 [Compound 19-18, 4-[3-[2,6-Dichloro-4-[(2R)-2-ethyl-4-methylpiperazin-1-yl]benzoyl]-2,4-dihydro-1,3-benzoxazin-8-yl]-5-fluoro-2-(3-oxa-8-azabicyclo[3.2.1]octan-8-yl)benzoic acid] | 0.0013
COC[C@@H]1CN(C)CCN1c1cc(Cl)c(C(=O)N2COc3c(cccc3-c3cc(N4C5CCC4COC5)c(C(=O)O)cc3F)C2)c(Cl)c1 [Compound 19-19, 4-[3-[2,6-Dichloro-4-[(2S)-2-(methoxymethyl)-4-methylpiperazin-1-yl]benzoyl]-2,4-dihydro-1,3-benzoxazin-8-yl]-5-fluoro-2-(3-oxa-8-azabicyclo[3.2.1]octan-8-yl)benzoic acid] | 0.0026
Cn1cc(-c2cc(Cl)c(C(=O)N3COc4c(cccc4-c4cc(N5C6COCC5C6)c(C(=O)O)cc4F)C3)c(Cl)c2)cn1 [Compound 20-1, 4-[3-[2,6-Dichloro-4-(1-methylpyrazol-4-yl)benzoyl]-2,4-dihydro-1,3-benzoxazin-8-yl]-5-fluoro-2-(3-oxa-6-azabicyclo[3.1.1]heptan-6-yl)benzoic acid N,N-diethylethanamine salt] | 0.85
CN1C[C@H]2CC[C@@H]1CN2c1cc(Cl)c(C(=O)N2COc3c(cccc3-c3cc(N4C5CCC4COC5)c(C(=O)O)cc3F)C2)c(Cl)c1 [Compound 20-2, 4-[3-[2,6-Dichloro-4-[(1R,4R)-5-methyl-2,5-diazabicyclo[2.2.2]octan-2-yl]benzoyl]-2,4-dihydro-1,3-benzoxazin-8-yl]-5-fluoro-2-(3-oxa-8-azabicyclo[3.2.1]octan-8-yl)benzoic acid] | 0.024
CN1C[C@@H]2CC[C@H]1CN2c1cc(Cl)c(C(=O)N2COc3c(cccc3-c3cc(N4C5CCC4COC5)c(C(=O)O)cc3F)C2)c(Cl)c1 [Compound 20-3, 4-[3-[2,6-Dichloro-4-[(1S,4S)-5-methyl-2,5-diazabicyclo[2.2.2]octan-2-yl]benzoyl]-2,4-dihydro-1,3-benzoxazin-8-yl]-5-fluoro-2-(3-oxa-8-azabicyclo[3.2.1]octan-8-yl)benzoic acid] | 0.04
CN1C2CC1CN(c1cc(Cl)c(C(=O)N3COc4c(cccc4-c4cc(N5C6CCC5COC6)c(C(=O)O)cc4F)C3)c(Cl)c1)C2 [Compound 20-4, 4-[3-[2,6-Dichloro-4-(6-methyl-3,6-diazabicyclo[3.1.1]heptan-3-yl)benzoyl]-2,4-dihydro-1,3-benzoxazin-8-yl]-5-fluoro-2-(3-oxa-8-azabicyclo[3.2.1]octan-8-yl)benzoic acid] | 0.15
O=C(O)c1cc(F)c(-c2cccc3c2OCN(C(=O)c2c(Cl)cc(N4CC5CC(C4)N5C4COC4)cc2Cl)C3)cc1N1C2CCC1COC2 [Compound 20-5, 4-[3-[2,6-Dichloro-4-[6-(oxetan-3-yl)-3,6-diazabicyclo[3.1.1]heptan-3-yl]benzoyl]-2,4-dihydro-1,3-benzoxazin-8-yl]-5-fluoro-2-(3-oxa-8-azabicyclo[3.2.1]octan-8-yl)benzoic acid] | 0.075
O=C(O)c1cc(F)c(-c2cccc3c2OCN(C(=O)c2c(Cl)cc(N4C5CC4CN(C4COC4)C5)cc2Cl)C3)cc1N1C2CCC1COC2 [Compound 20-6, 4-[3-[2,6-Dichloro-4-[3-(oxetan-3-yl)-3,6-diazabicyclo[3.1.1]heptan-6-yl]benzoyl]-2,4-dihydro-1,3-benzoxazin-8-yl]-5-fluoro-2-(3-oxa-8-azabicyclo[3.2.1]octan-8-yl)benzoic acid] | 0.048
COCCN1C[C@@H]2C[C@H]1CN2c1cc(Cl)c(C(=O)N2COc3c(cccc3-c3cc(N4C5CCC4COC5)c(C(=O)O)cc3F)C2)c(Cl)c1 [Compound 20-7, 4-[3-[2,6-Dichloro-4-[(1S,4S)-5-(2-methoxyethyl)-2,5-diazabicyclo[2.2.1]heptan-2-yl]benzoyl]-2,4-dihydro-1,3-benzoxazin-8-yl]-5-fluoro-2-(3-oxa-8-azabicyclo[3.2.1]octan-8-yl)benzoic acid] | 0.014
O=C(O)c1cc(F)c(-c2cccc3c2OCN(C(=O)c2c(Cl)cc(N4CCNCC4)cc2Cl)C3)cc1N1C2CCC1COC2 [Compound 20-8, 4-[3-(2,6-Dichloro-4-piperazin-1-ylbenzoyl)-2,4-dihydro-1,3-benzoxazin-8-yl]-5-fluoro-2-(3-oxa-8-azabicyclo[3.2.1]octan-8-yl)benzoic acid] | 0.018
CN1CCN(c2cc(Cl)c(C(=O)N3COc4c(cccc4-c4cc(N5C6CCC5COC6)c(C(=O)O)cc4F)C3)c(Cl)c2)CC12CC2 [Compound 20-9, 4-[3-[2,6-Dichloro-4-(4-methyl-4,7-diazaspiro[2.5]octan-7-yl)benzoyl]-2,4-dihydro-1,3-benzoxazin-8-yl]-5-fluoro-2-(3-oxa-8-azabicyclo[3.2.1]octan-8-yl)benzoic acid] | 0.014
Cc1cnn(C2CN(c3cc(Cl)c(C(=O)N4COc5c(cccc5-c5cc(N6C7CCC6COC7)c(C(=O)O)cc5F)C4)c(Cl)c3)C2)c1 [Compound 20-13, 4-[3-[2,6-Dichloro-4-[3-(4-methylpyrazol-1-yl)azetidin-1-yl]benzoyl]-2,4-dihydro-1,3-benzoxazin-8-yl]-5-fluoro-2-(3-oxa-8-azabicyclo[3.2.1]octan-8-yl)benzoic acid] | 0.0055
